In experiment [1] the test system is JAK2/IDH2-mutant MPN. Briefly: Therapeutic assay: spleen weight, hematocrit and leukocyte count at sacrifice. Format: in vivo, mice. The note with it: IDH2^R140Q JAK2^V617F bone marrow recipients, four weeks of treatment; vehicle mean 289.1. The protocol:
(§1) Dissected femurs and tibias were isolated. Bone marrow was flushed into PBS+2% BSA or RPMI+10% FCS using a syringe or by centrifuge spin. Spleens were isolated and single cell suspensions made by mechanical disruption using glass slides. All harvested cells were passed through a […] strainer. Red blood cells (RBCs) were lysed in ammonium chloride-potassium bicarbonate lysis buffer for 10 min on ice. Cells were transplanted by via tail vein injection into lethally irradiated (2×550 Rad) CD45.1 host mice. For noncompetitive transplants, 1×10^6 total cells were transplanted; for competitive transplants including drug studies, 1×10^6 total donor cells were injected in a mixture with 1×10^6 cells from a congenic CD45.1 donor; for cell of origin transplants, injection number was determined based on the lowest yield after sort to inject approximately 100,000 MPP or 300 LT-HSC with 300,000 whole bone marrow cells from a CD45.1 donor.

The test system of experiment [2] is IDH2^R140Q JAK2^V617F mutant LSK. Briefly: RNA-sequencing of donor-derived CD45.2 LSK from treated mice (GSEA). Format: in vivo. As for the experimental part:
Before cell of origin transplants, sorting was performed on bone marrow with enrichment for cKit/CD117-positive cells using CD117 MicroBeads (Miltenyi). For expression analysis, sorting was performed on bone marrow that had been depleted of mature cells using Progenitor Cell Enrichment Kit ([…] Technologies).
CD45.2+ LSK cells were sorted into ice cold FACS Buffer, pelleted, and stored in Triazol until extraction of RNA using phenol-chlorophorm. The library was produced using SMARTer amplification (Clontech) amplify and create the library. Illumina sequencing was performed using Paired-End 50 bp at 40×10^6 reads per sample.

The subject of experiment [3] is IDH2^R140Q JAK2^V61F mutant cells. As to the kind of experiment: Serum 2HG levels in treated transplant recipient mice (LC-MS). Format: in vivo. The settings on record: mice engrafted with IDH2^R140Q JAK2^V617F cells; oral AG221 40-100 mg/kg, ruxolitinib 60 mg per kg, BID; at sacrifice after four weeks; vehicle mean 1874. The protocol: as §1
2HG was extracted from serum using 80% aqueous methanol, as described by Lu et al., […]. […] All extracts were spun at 13,000 rpm at 4° C. to remove precipitate, dried at room temperature, and stored at −80° C.

The subject of experiment [4] is JAK2/IDH2-mutant MPN cell metabolism. As to the kind of experiment: LC/MS metabolite analysis of bone marrow aspirates from treated mice. Format: in vivo, mouse. The protocol: External mass calibration was performed using the standard calibration mixture every 7 days. […] Buffer A was 20 mM ammonium carbonate, 0.1% ammonium hydroxide; buffer B was acetonitrile. […] The sheath gas flow was set to 40 units, the auxiliary gas flow was set to 15 units, and the sweep gas flow was set to 1 unit. […] Relative quantitation of polar metabolites was performed with XCalibur QuanBrowser 2.2 (Thermo Fisher Scientific) using a 5 ppm mass tolerance and referencing an in-house library of chemical standards.

Experiment [5] concerns JAK2/IDH2-mutant MPN/AML cells. As to the kind of experiment: FACS of cell surface markers on cultured human colony cells. Format: cell-based. The settings on record: cultured patient cells, 400 nM. As for the experimental part:
(§2) Frozen or fresh PBMCs were plated in Methocult H4435 (Stem Cell) with penicillin and streptomycin in triplicate wells. MPN patient cells were plated after enrichment using CD34 Microbeads (Miltenyi) at 1,000 cells per well; AML patient cells were plated without enrichment at 100,000 cells per well.
To observe monocytic and granulocytic differentiation, antibodies against CD117/cKit, CD34, CD38, CD15 (HI98, eBioscience), CD14 (HCD14, BioLegend), and CD16 (3G8, BioLegend) were used.

The subject of experiment [6] is JAK2/IDH2-mutant MPN. Briefly: Bone marrow stem and progenitor populations by FACS in treated recipients. Format: in vivo, mice. The settings on record: for Erythrocyte progenitors: Pre-erythrocytes / Pre-MegE populations / Erythrocyte progenitors: CFU-E / Erythrocyte progenitors: Pre-CFU-E: bone marrow FACS; for Erythrocyte progenitors: Pre-erythrocytes / Pre-MegE populations / Erythrocyte progenitors: CFU-E / Erythrocyte progenitors: Pre-CFU-E / Total LSK number in the bone marrow: four weeks of treatment; for Erythrocyte progenitors: Pre-erythrocytes / Pre-MegE populations: vehicle 0.1757; for Erythrocyte progenitors: CFU-E: vehicle 1.621; for Erythrocyte progenitors: Pre-CFU-E: vehicle mean 0.5189%; for Total LSK number in the bone marrow: double mutant mice, vehicle mean 57.19×10^3. As for the experimental part: as §1
(§3) Cells were stained with antibodies in FACS Buffer (2% Bovine Serum Albumin in phosphate-buffered saline (PBS)) for 30 min on ice. Donor and support chimerism was assessed using antibodies against CD45.1 (Clone A20, Biolegend) and CD45.2 (Clone 104, BioLegend).
Cells were also stained with antibodies specific to c-Kit/CD117 (clone 2B8, BioLegend), Sca-1 (clone D7, BioLegend), FcγRII/III/CD16/32 (clone 2.4G2, eBiosciences) and CD34 (clone RAM34, eBiosciences) or SLAM/CD150 (TC15-12F12.2, BioLegend) and CD48 (HM48-1, eBioscience). To assess mature cell lineages we used a combination of antibodies against Mac1, Gr-1, B220, CD3, cKit/CD117, CD45.1, and CD45.2.
To assess erythroid and megakaryocyte progenitors we stained unlysed tissues with a lineage cocktail including CD4, CD8, B220/CD45R, Mac1/CD11b, Gr-1, IL7R/CD127 (A7R34, BioLegend), CD49b (DX5, BioLegend). Antibodies were also used against c-Kit/CD117, Sca-1, SLAM/CD150, CD48, FcγRII/III/CD16/32, CD41 (eBioMWReg30, eBioscience), CD105 (MJ7/18, BioLegend), CD71 (RI7217, BioLegend), and Ter119 and gated as described by Pronk et al., Elucidation of the Phenotypic, Functional, and Molecular Topography of a Myeloerythroid Progenitor Cell Hierarchy, Cell Stem Cell 2007; 1:428-42.
(In general: Flow cytometry measures light scatter and fluorescence of single cells or particles in a stream.)

Experiment [7] relates to IDH2^R140Q JAK2^V617F MPN cells (CD45.2^+). Briefly: Paired donor chimerism in peripheral blood before and after treatment. Format: in vivo, mice. The settings on record: four weeks of treatment, vehicle +4.236. The protocol:
as §1, §3

The test system of experiment [8] is JAK2/IDH2 mutant MPN. As to the kind of experiment: Histology of bone marrow and spleen of treated recipients. Format: in vivo, mice. As for the experimental part:
Pathology was obtained after fixation in 4% paraformaldehyde (PFA); blood smears and bone marrow cytospins were performed on the day of sacrifice. Sections were stained with hematoxylin and eosin stain or Wright Giemsa stain as appropriate. CD34+ staining was performed using CD34, Rat Monoclonal Antibody Performed on a Leica Bond™ RX using the Bond™ Polymer Refine Detection Kit (Cat. No. DS9800). The sections stained with CD34 (Abcam, Cat. Ab8158 diluted 1:50) were pre-treated using heat mediated antigen retrieval with Citrate, pH6 (Leica Biosystem Epitope Retrieval 1, Cat. No. AR9961) for 20 min. DAB was used as the chromogen, counterstained with hematoxylin and mounted.

The subject of experiment [9] is samples from patients with MPN and Post-MPN AML with IDH2^R140Q and JAK2^V617F mutations. Briefly: Human colony forming (methylcellulose) assay. The experiment is classed as cell-based. The settings on record: Methocult H4435, 400 nM. As for the experimental part:
Approval was obtained from the Institutional Review Board at Memorial Sloan-Kettering Cancer Center. Tissues were collected in partnership with the Human Oncology Tissue Bank, and all patients provided informed consent. Fresh peripheral blood was collected into heparinized collection tubes, and separation of peripheral blood mononuclear cells (PBMC) was performed using hetastarch and a Ficoll gradient with subsequent red blood cell lysis.
as §2

Setting [10] is: CD45.2 LSK RNA-seq, GSEA, p<1e-4.
[11] abbreviates: stem cells of treated mice versus wild type, Hallmark GSEA.

Consider `CC(C)(O)CNc1nc(Nc2ccnc(C(F)(F)F)c2)nc(-c2cccc(C(F)(F)F)n2)n1` [AG221, 2-methyl-1-[(4-[6-(trifluoromethyl)pyridin-2-yl]-6-{[2-(trifluoromethyl)pyridin-4-yl]amino}-1,3,5-triazin-2-yl)amino]propan-2-ol], for which the “Splenomegaly: spleen weight (mean)” value in experiment [1] was found to be 188.3 mg. Moreover, in experiment [2] (setting [10]), the “NES, downregulated genes of the combination-therapy signature also altered by monotherapy” value is reported as −2.3 and the “NES, upregulated genes of the combination-therapy signature also reversed by monotherapy” value is given as “+1.9”. Also, in experiment [2] (setting [11]), the “IL6/JAK/STAT3 gene expression signature” value was “enrichment for expression of genes in this pathway were seen”; the Interferon gamma signatures result is on record as “significantly enriched”; the “Oncogenic signatures (cMYC, mTOR, KRAS)” value is recorded as “highly significant enrichment”. In [3], the “Serum 2HG levels (mean)” value is recorded as 744.4 ng/mL. In experiment [4] (after 10 days of treatment), the “2HG levels in bone marrow aspirates” value is “Reduction”. For the same molecule, the “Levels of Kreb's cycle intermediates (α-ketoglutarate, citrate, succinate, fumarate, malate)” value in [4] (bone marrow aspirates, 10 days of treatment, p<0.0252) was “reduced”. Also, in experiment [5], the “Differentiation markers CD235a / CD14” value was “upregulation” and the “Surface expression of immature marker cKit/CD117 / proportion of c-Kit positive colonies” value is given as “reduced”. Also, in [6], the “Erythrocyte progenitors: Pre-erythrocytes” value came to 0.03906, the Pre-MegE populations is listed as 0.03906, the “Erythrocyte progenitors: CFU-E” value is 0.8251 and the “Erythrocyte progenitors: Pre-CFU-E” value was 0.1913%. For the same molecule, in experiment [6], the “Total LSK number in the bone marrow” value is given as 36.43×10^3. For the same molecule, the “Proportion of CD45.2 myeloid progenitor populations” value in experiment [6] (donor-derived cells, number of CD45.1 myeloid progenitors not affected) is “reduced”. For the same molecule, in experiment [7], the “Mutant donor chimerism, mean change pre- and post-treatment” value is on record as −6.291%. Moreover, in experiment [8] (CD34 immunohistochemical stain of bone marrow), the “Aberrant CD34 expression in megakaryocytes” value is given as “resulted the aberrant CD34 expression seen in megakaryocytes”. For the same molecule, the “Expansion of spleen blasts” value in experiment [8] (histology, compared with untreated JAK2/IDH2 mutant MPN) is reported as “eliminated the expansion of spleen blasts”. In addition, the BFU-E colonies entry in experiment [9] is on record as “presence of BFU-E colonies”. The “Colony number / colony output” value in experiment [9] (DMSO controls) is recorded as “increase in colony number”.
With `N#CC[C@H](C1CCCC1)n1cc(-c2ncnc3[nH]ccc23)cn1` [ruxolitinib, reference compound], the “Splenomegaly: spleen weight (mean)” value in experiment [1] turned out to be 101.3 mg. Moreover, in experiment [2] (setting [10]), the “NES, downregulated genes of the combination-therapy signature also altered by monotherapy” value was −2.2. Besides, the “Serum 2HG levels (mean)” value in experiment [3] is on record as 1233 ng/mL. Besides, in [6], the “Erythrocyte progenitors: Pre-erythrocytes” value amounted to 0.08063, the Pre-MegE populations was 0.08063, the “Erythrocyte progenitors: CFU-E” value was determined as 0.5553 and the “Erythrocyte progenitors: Pre-CFU-E” value was 0.1103%. The “Total LSK number in the bone marrow” value in experiment [6] is given as 20.73×10^3. Also, in experiment [7], the “Mutant donor chimerism, mean change pre- and post-treatment” value is listed as “+3.256%”.

For the origin of these results see US11833154B2, “Methods of treatment of myeloproliferative neoplasm” (priority 2017, dated 2023).
